Like-named read-outs stand apart in the source and are kept apart here.
What was measured:
Pseudomonas aeruginosa = experiment: Checkerboard broth dilution synergy study (mic); format: cell-based; conditions: Table II; for MIC: Pseudomonas aeruginosa, read-out: mic, drug alone
Serratia marcescens = experiment: Checkerboard broth dilution synergy study (mic); format: cell-based; conditions: Table II; for MIC: Serratia marcescens, read-out: mic, drug alone
E. cloacae = experiment: Checkerboard broth dilution synergy study (mic); format: cell-based; conditions: Table II; for MIC: Enterobacter cloacae, read-out: mic, drug alone
Klebsiella pneumoniae = experiment: Checkerboard broth dilution synergy study (mic); format: cell-based; conditions: Table II; for MIC: Klebsiella pneumoniae, read-out: mic, drug alone
Proteus rettgeri = experiment: Checkerboard broth dilution synergy study (mic); format: cell-based; conditions: Table II, strain 65
Proteus mirabilis = experiment: Checkerboard broth dilution synergy study (mic); format: cell-based; conditions: Table II, strain Allen
Proteus vulgaris = experiment: Checkerboard broth dilution synergy study (mic); format: cell-based; conditions: Table II; for MIC: Proteus vulgaris, read-out: mic, drug alone
E. coli = experiment: Checkerboard broth dilution synergy study (mic); format: cell-based; conditions: Table II; for MIC: Escherichia coli, read-out: mic, drug alone
Pseudomonas maltophilia = experiment: Checkerboard broth dilution synergy study (mic); format: cell-based; conditions: Table II; for MIC: Stenotrophomonas maltophilia, read-out: mic, drug alone
Acinetobacter sp. = experiment: Checkerboard broth dilution synergy study (mic); format: cell-based; conditions: Table II; for MIC: Acinetobacter, read-out: mic, drug alone
[1] = single 1 mg/kg (i.m.), healthy volunteers; cited from earlier work

SMILES: NC[C@H]1O[C@H](O[C@H]2[C@H](O)[C@@H](O[C@H]3O[C@H](CO)[C@@H](O)[C@H](N)[C@H]3O)[C@H](N)C[C@@H]2N)[C@H](N)C[C@@H]1O [tobramycin]
- MIC (Pseudomonas aeruginosa; strain 84): 8 µg/mL
- MIC (Pseudomonas aeruginosa; strain 366): 4 µg/mL
- MIC (Pseudomonas aeruginosa; strain 424): 64 µg/mL
- MIC (Pseudomonas aeruginosa; strain 447): 64 µg/mL
- MIC (Pseudomonas aeruginosa; strain 1484): 64 µg/mL
- MIC (Pseudomonas aeruginosa; strain Davis): > 64 µg/mL
- mic of each drug in combination I + T (Pseudomonas aeruginosa; strain 84): 1 µg/mL
- mic of each drug in combination I + T (Pseudomonas aeruginosa; strain 366): 2 µg/mL
- mic of each drug in combination I + T (Pseudomonas aeruginosa; strain 424): 0.5 µg/mL
- mic of each drug in combination I + T (Pseudomonas aeruginosa; strain 447): < 0.5 µg/mL
- mic of each drug in combination I + T (Pseudomonas aeruginosa; strain 1484): 2 µg/mL
- mic of each drug in combination I + T (Pseudomonas aeruginosa; strain Davis): 1 µg/mL
- MIC (Serratia marcescens; strain 100): 16 µg/mL
- MIC (Serratia marcescens; strain 302-2): 16 µg/mL
- MIC (Serratia marcescens; strain 796): 64 µg/mL
- MIC (Serratia marcescens; strain 14142): > 64 µg/mL
- MIC (Serratia marcescens; strain Townsend): 32 µg/mL
- mic of each drug in combination I + T (Serratia marcescens; strain 100): 8 µg/mL
- mic of each drug in combination I + T (Serratia marcescens; strain 302-2): 1 µg/mL
- mic of each drug in combination I + T (Serratia marcescens; strain 796): 16 µg/mL
- mic of each drug in combination I + T (Serratia marcescens; strain 14142): 4 µg/mL
- mic of each drug in combination I + T (Serratia marcescens; strain Townsend): 0.5 µg/mL
- MIC (E. cloacae; strain 1246): 16 µg/mL
- MIC (E. cloacae; strain 1253): 32 µg/mL
- MIC (E. cloacae; strain 1415): 32 µg/mL
- MIC (E. cloacae; strain B293): > 64 µg/mL
- mic of each drug in combination I + T (E. cloacae; strain 1246): 0.5 µg/mL
- mic of each drug in combination I + T (E. cloacae; strain 1253): 2 µg/mL
- mic of each drug in combination I + T (E. cloacae; strain 1415): < 0.015 µg/mL
- mic of each drug in combination I + T (E. cloacae; strain B293): 8 µg/mL
- MIC (Klebsiella pneumoniae; strain 130): 16 µg/mL
- MIC (Klebsiella pneumoniae; strain 214-1): 32 µg/mL
- MIC (Klebsiella pneumoniae; strain 463): 16 µg/mL
- MIC (Klebsiella pneumoniae; strain 512): > 64 µg/mL
- MIC (Klebsiella pneumoniae; strain 933): 32 µg/mL
- MIC (Klebsiella pneumoniae; strain 1204-2): > 64 µg/mL
- mic of each drug in combination I + T (Klebsiella pneumoniae; strain 130): 0.5 µg/mL
- mic of each drug in combination I + T (Klebsiella pneumoniae; strain 214-1): 0.03 µg/mL
- mic of each drug in combination I + T (Klebsiella pneumoniae; strain 463): < 0.015 µg/mL
- mic of each drug in combination I + T (Klebsiella pneumoniae; strain 512): 0.06 µg/mL
- mic of each drug in combination I + T (Klebsiella pneumoniae; strain 933): 0.5 µg/mL
- mic of each drug in combination I + T (Klebsiella pneumoniae; strain 1204-2): 0.03 µg/mL
- MIC (Proteus rettgeri; Providencia rettgeri, read-out: mic, drug alone): 64 µg/mL
- mic of each drug in combination I + T (Proteus rettgeri): 1 µg/mL
- MIC (Proteus mirabilis; Proteus mirabilis, read-out: mic, drug alone): 32 µg/mL
- mic of each drug in combination I + T (Proteus mirabilis): 1 µg/mL
- MIC (Proteus vulgaris; strain 363): 64 µg/mL
- MIC (Proteus vulgaris; strain Shide): 32 µg/mL
- mic of each drug in combination I + T (Proteus vulgaris; strain 363): 1 µg/mL
- mic of each drug in combination I + T (Proteus vulgaris; strain Shide): 1 µg/mL
- MIC (E. coli; strain 46-2): > 64 µg/mL
- MIC (E. coli; strain 77-3): 64 µg/mL
- MIC (E. coli; strain 136-3): 64 µg/mL
- MIC (E. coli; strain 1260): > 64 µg/mL
- MIC (E. coli; strain 1262): 16 µg/mL
- MIC (E. coli; strain Briley): 4 µg/mL
- MIC (E. coli; strain Dill): > 64 µg/mL
- mic of each drug in combination I + T (E. coli; strain 46-2): 4 µg/mL
- mic of each drug in combination I + T (E. coli; strain 77-3): 0.25 µg/mL
- mic of each drug in combination I + T (E. coli; strain 136-3): 4 µg/mL
- mic of each drug in combination I + T (E. coli; strain 1253): 4 µg/mL
- mic of each drug in combination I + T (E. coli; strain 1260): 0.5 µg/mL
- mic of each drug in combination I + T (E. coli; strain 1262): 8 µg/mL
- mic of each drug in combination I + T (E. coli; strain 1415): 8 µg/mL
- mic of each drug in combination I + T (E. coli; strain Briley): 8 µg/mL
- mic of each drug in combination I + T (E. coli; strain Dill): 4 µg/mL
- MIC (Pseudomonas maltophilia; strain 10): 64 µg/mL
- MIC (Pseudomonas maltophilia; strain 11): 4 µg/mL
- MIC (Pseudomonas maltophilia; strain 505): 32 µg/mL
- mic of each drug in combination I + T (Pseudomonas maltophilia; strain 10): 8 µg/mL
- mic of each drug in combination I + T (Pseudomonas maltophilia; strain 11): 2 µg/mL
- mic of each drug in combination I + T (Pseudomonas maltophilia; strain 505): 0.5 µg/mL
- MIC (Acinetobacter sp.; strain 28-1): 0.5 µg/mL
- MIC (Acinetobacter sp.; strain 28-2): 4 µg/mL
- MIC (Acinetobacter sp.; strain 106): 1 µg/mL
- MIC (Acinetobacter sp.; strain 107): 4 µg/mL
- MIC (Acinetobacter sp.; strain 109): 1 µg/mL
- mic of each drug in combination I + T (Acinetobacter sp.; strain 28-1): 0.5 µg/mL
- mic of each drug in combination I + T (Acinetobacter sp.; strain 28-2): 0.5 µg/mL
- mic of each drug in combination I + T (Acinetobacter sp.; strain 106): 0.5 µg/mL
- mic of each drug in combination I + T (Acinetobacter sp.; strain 107): 0.5 µg/mL
- mic of each drug in combination I + T (Acinetobacter sp.; strain 109): 0.5 µg/mL
- peak serum concentrations [1]: 4.4 µg/mL

Reference: patent US4452778A, “Synergistic antibacterial compositions and method of treatment of infections caused by multiple antibiotic-resistant organisms” (Eli Lilly and Company, priority 1981, dated 1984)
